According to PubChem BioAssay AID276 (DTP/NCI, 2004):
Several values for one entry are separate records, joined by “and”; a condition that tells them apart may be missing. Identical values can stand only once. Toxic doses and inconclusive results are not listed. Rule for the calls: active = survival T/C of 150% or more; inactive = T/C below 125% in these data.

Tested on: B6C3F1 mice, Lewis lung carcinoma iv, survival T/C
Assay: NCI In Vivo Anticancer Drug Screen. Data for tumor model Lewis Lung Carcinoma (intravenous) in B6C3F1 mice
Details: endpoint: median survival time, schedule: Q01DX009 (ip), higher = longer survival
Procedure, shortened: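 T/C ratio derived from survival of compound-treated versus vehicle-treated mice bearing transplantable tumors.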

[1] = dose: 1.25 mg/kg/injection, vehicle: saline
[2] = dose: 12.5 mg/kg/injection, vehicle: saline with Tween-80
[3] = dose: 25.0 mg/kg/injection, vehicle: saline with Tween-80
[4] = dose: 50.0 mg/kg/injection, vehicle: saline with Tween-80
[5] = dose: 100.0 mg/kg/injection, vehicle: saline with Tween-80
[6] = dose: 200.0 mg/kg/injection, vehicle: saline with Tween-80
[7] = dose: 400.0 mg/kg/injection, vehicle: saline with Tween-80
[8] = dose: 6.25 mg/kg/injection, vehicle: saline
[9] = dose: 12.5 mg/kg/injection, vehicle: saline
[10] = dose: 25.0 mg/kg/injection, vehicle: saline
[11] = dose: 50.0 mg/kg/injection, vehicle: saline

Measured: T/C

Cc1nc(N)nc(N)c1-c1ccc(Cl)c(Cl)c1
inactive: dose: 0.32 mg/kg/injection, vehicle: saline 97 % of control | dose: 0.63 mg/kg/injection, vehicle: saline 109 % of control | [1] 120 % of control | dose: 2.5 mg/kg/injection, vehicle: saline 113 % of control | dose: 5.0 mg/kg/injection, vehicle: saline 124 % of control | dose: 10.0 mg/kg/injection, vehicle: saline 112 % of control

C=C/C(C)=C/[C@H](C)C(=O)C[C@H](O)CC1CC(=O)NC(=O)C1
inactive: dose: 6.25 mg/kg/injection, vehicle: other 96 % of control | dose: 12.5 mg/kg/injection, vehicle: other 96 % of control | dose: 25.0 mg/kg/injection, vehicle: other 97 % of control | dose: 50.0 mg/kg/injection, vehicle: other 92 % of control | dose: 100.0 mg/kg/injection, vehicle: other 96 % of control | dose: 200.0 mg/kg/injection, vehicle: other 100 % of control

COC1CC(C)C(OC)c2cc(O)cc(c2O)NC(=O)/C(C)=C/C=C\C(C)C(OC(N)=O)/C(C)=C\C(C)C1OC (centres undefined)
inactive: dose: 5.0 mg/kg/injection, vehicle: saline + alcohol 115 % of control | dose: 10.0 mg/kg/injection, vehicle: saline + alcohol 88 % of control

CO[C@@]12[C@H](COC(N)=O)C3=C(C(=O)C(C)=C(N)C3=O)N1C[C@@H]1N[C@@H]12
inactive: dose: 0.12 mg/kg/injection, vehicle: saline 101 % of control | dose: 0.25 mg/kg/injection, vehicle: saline 103 % of control and 109 % of control | dose: 0.5 mg/kg/injection, vehicle: saline 118 % of control | dose: 1.0 mg/kg/injection, vehicle: saline 107 % of control

COc1ccc(/C=C/C(=O)c2cc(C(=O)O)c(OC)cc2OC)cc1OC
inactive: dose: 12.5 mg/kg/injection, vehicle: suspension in saline 98 % of control | dose: 25.0 mg/kg/injection, vehicle: suspension in saline 104 % of control | dose: 50.0 mg/kg/injection, vehicle: suspension in saline 98 % of control | dose: 100.0 mg/kg/injection, vehicle: suspension in saline 90 % of control | dose: 200.0 mg/kg/injection, vehicle: suspension in saline 95 % of control

CCCCC(=O)OCC(=O)[C@]1(O)Cc2c(O)c3c(c(O)c2[C@@H](OC2CC(NC(=O)C(F)(F)F)C(O)C(C)O2)C1)C(=O)c1c(OC)cccc1C3=O (some centres undefined)
inactive: dose: 4.0 mg/kg/injection, vehicle: Klucel (hydroxypropylcellulose) (HPC) 100 % of control | dose: 4.0 mg/kg/injection, vehicle: saline with Tween-80 107 % of control | dose: 8.0 mg/kg/injection, vehicle: Klucel (hydroxypropylcellulose) (HPC) 100 % of control | dose: 8.0 mg/kg/injection, vehicle: saline with Tween-80 88 % of control | dose: 16.0 mg/kg/injection, vehicle: Klucel (hydroxypropylcellulose) (HPC) 107 % of control | dose: 16.0 mg/kg/injection, vehicle: saline with Tween-80 96 % of control | dose: 32.0 mg/kg/injection, vehicle: Klucel (hydroxypropylcellulose) (HPC) 110 % of control | dose: 32.0 mg/kg/injection, vehicle: saline with Tween-80 108 % of control | dose: 64.0 mg/kg/injection, vehicle: Klucel (hydroxypropylcellulose) (HPC) 118 % of control | dose: 128.0 mg/kg/injection, vehicle: Klucel (hydroxypropylcellulose) (HPC) 120 % of control

Cc1cc(O)c2c(c1O)C(=O)C13C(=C2O)C(=O)C2C(O)C1C1C(O)C3C(=O)C3=C(O)c4c(O)cc(C)c(O)c4C(=O)C321 (centres undefined)
inactive: dose: 0.78 mg/kg/injection, vehicle: saline with Tween-80 100 % of control | dose: 1.56 mg/kg/injection, vehicle: saline with Tween-80 91 % of control | dose: 3.12 mg/kg/injection, vehicle: saline with Tween-80 90 % of control

COc1cc2c(c(OC)c1OC)-c1ccc(OC)c(=O)cc1[C@@H](NC(=O)CCl)CC2
inactive: dose: 0.03 mg/kg/injection, vehicle: saline with Tween-80 114 % of control | dose: 0.06 mg/kg/injection, vehicle: saline with Tween-80 102 % of control | dose: 0.12 mg/kg/injection, vehicle: saline with Tween-80 114 % of control | dose: 0.25 mg/kg/injection, vehicle: saline with Tween-80 106 % of control

OC1(CSc2ccccc2)CCCCC1
inactive: [2] 95 % of control and 119 % of control | [3] 107 % of control | [4] 94 % of control and 114 % of control | [5] 103 % of control and 106 % of control | [6] 100 % of control and 105 % of control | [7] 108 % of control and 110 % of control

O=c1[nH]c2c(ccc3cnccc32)c2c1CCC2
inactive: dose: 3.12 mg/kg/injection, vehicle: saline 109 % of control | [8] 102 % of control | [9] 105 % of control | [10] 109 % of control

CCOC(=O)C(N)CSC(=O)NC (centres undefined)
inactive: [9] 98 % of control | [10] 103 % of control | [11] 93 % of control | dose: 100.0 mg/kg/injection, vehicle: saline 101 % of control | dose: 200.0 mg/kg/injection, vehicle: saline 109 % of control

O=N[O-].O=N[O-].O=N[O-].[Co+3].[NH-]CC[N-]CC[NH-]
inactive: [8] 98 % of control | [9] 115 % of control | [10] 117 % of control | [11] 90 % of control

c1ccc2c(c1)-c1ccccc1C1NC21 (centres undefined)
inactive: dose: 6.25 mg/kg/injection, vehicle: saline with Tween-80 100 % of control | [2] 106 % of control

CCOC(=O)Nc1cc2c(c(N)n1)N=C(c1ccccc1)CN2
inactive: dose: 1.25 mg/kg/injection, vehicle: saline with Tween-80 105 % of control | dose: 2.5 mg/kg/injection, vehicle: saline with Tween-80 105 % of control | dose: 5.0 mg/kg/injection, vehicle: saline with Tween-80 100 % of control

CCN(CC)CCNc1ccc(C)c2sc3ccc(O)cc3c(=O)c12
inactive: [2] 95 % of control | [3] 105 % of control | [4] 102 % of control

COCCCNC1=C(C#N)C(=O)NC(c2cccc([N+](=O)[O-])c2)S1 (centres undefined)
inactive: [2] 111 % of control | [3] 93 % of control | [4] 96 % of control | [5] 104 % of control | [6] 93 % of control | [7] 98 % of control

CC(=O)OC1C2(CC3N4C(=O)C5(CO)SSC4(CC31O)C(=O)N5C)OC(C)C(C)(C)C2=O (centres undefined)
inactive: dose: 0.08 mg/kg/injection, vehicle: saline 101 % of control | dose: 0.15 mg/kg/injection, vehicle: saline 88 % of control | dose: 0.31 mg/kg/injection, vehicle: saline 105 % of control | dose: 0.62 mg/kg/injection, vehicle: saline 92 % of control | [1] 86 % of control

CC(=O)NC(C=O)OCC=O (centres undefined)
inactive: dose: 6.25 mg/kg/injection, vehicle: water 111 % of control | dose: 12.5 mg/kg/injection, vehicle: water 104 % of control | dose: 25.0 mg/kg/injection, vehicle: water 97 % of control | dose: 50.0 mg/kg/injection, vehicle: water 97 % of control | dose: 100.0 mg/kg/injection, vehicle: water 91 % of control | dose: 200.0 mg/kg/injection, vehicle: water 103 % of control
